{"source": "patent US12533357B2", "about": "“Treatment for acute myeloid leukemia or myelodysplastic syndrome” (UNIVERSITY HEALTH NETWORK, priority 2019, dated 2026)", "key": {"[1]": {"system": "MOLT-4 acute lymphoblastic leukemia xenograft", "assay": "MOLT-4 xenograft tumor growth in SCID mice", "type": "in vivo", "details": "day 13; 0.5 mg/kg IP weekly; p=0.21", "method": "(§1) The human acute lymphoblastic leukemia cell line MOLT-4 was acquired from American Type Culture Collection (Manassas, VA, USA) and grown in RPMI medium containing 100 units/mL penicillin G sodium, 100 μg/mL streptomycin sulfate. The media was supplemented with 10% heat-inactivated fetal bovine serum, 2 mM L-glutamine, and 0.11% sodium pyruvate. The tumor cells were maintained in a humidified environment of 5% CO2 and 95% air at 37° C. Cells were verified to be free of mouse pathogens by IMPACT IV PCR analysis (IDEXX RADIL, Colombia, MO, USA) before injection.\n(§2) Female SCID mice were purchased from the Ontario Cancer Institute and received and acclimated at the MaRS-TMDT Animal Resources Centre for 2 weeks prior to the start of the experiment. The mice were fed ad libitum autoclaved water and Rodent Lab Diet (Harlan Teklad LM-485) consisting of 19% crude protein, 5% crude fat, and 5% crude fiber. Mice were housed in microisolator cages and maintained in an environment with a 12-hour light cycle at 20-22° C. and 40-60% humidity. On the day of implantation, MOLT-4 cells were harvested and resuspended with serum free DMEM to a concentration of 1×10^8/mL and each mouse was injected subcutaneously with a volume of 0.1 mL containing 1×10^7 MOLT-4 cells in the right rear flank.\nAnimals were dosed Compound (I) via oral gavage in a volume of 10 mL/kg. The animals were dosed with a 2.25 mm×50 mm curved gavage needle affixed to a 1 mL syringe. Vincristine was dosed by IP injection once per week.\n(§3) Toxicity was evaluated by body weight measurements and clinical observations. The mice were observed daily for overt signs of any adverse, treatment related side effects, and clinical signs of toxicity. Acceptable toxicity was set at a group mean body weight loss of less than 20% during the study and not more than one treatment related death in a group. Animals were monitored for body weights and tumor growth where tumor volumes were calculated using the formula: tumor volume=width^2×length/2.\n(§4) The study evaluated Compound (I) fumarate administered by oral gavage for 21 days, either daily at 7.5 mg/kg or 2 days on/5 days off at 13.5 mg/kg, in comparison to the standard-of-care agent vincristine, dosed in 4 weekly intraperitoneal injections of 0.5 mg/kg, in the MOLT-4 […] xenograft model in SCID (severe combined immunodeficiency) mice. Xenografts were established by subcutaneously injecting 1×10^7 tumor cells into the right flank of female SCID mice. Treatment was initiated 9 days following implantation when tumor volumes reached a mean volume of approximately 250 mm^3."}, "[2]": {"system": "MV4-11 acute myeloid leukemia xenograft", "assay": "MV4-11 xenograft tumor growth in SCID mice", "type": "in vivo", "details": "day 13; vincristine 0.5 mg/kg IP weekly; p=0.14", "method": "as §1, with “myeloid” for “lymphoblastic”, “MV4-11” for “MOLT-4”\nas §2, with “MV4-11” for “MOLT-4”\nAnimals were dosed Compound (I) via oral gavage in a volume of 10 ml/kg. The animals were dosed with a 2.25 mm×50 mm curved gavage needle affixed to a 1 ml syringe. Vincristine was dosed by IP injection once per week.\nas §3\nas §4, with “gavage,” for “gavage for 21 days,”, “MV4-11” for “MOLT-4”, “14” for “9”, “90” for “250”, “mm^3. […] Animals were dosed in the 2-on/5-off schedule for 21 days. […] By day 13, the average volume of the control tumors was 878 mm^3, averaging […] tumor growth over the 13 days. On day 13 the average tumor growth inhibition in the vincristine treated arm was 85% (p=0.14).” for “mm^3.”"}}, "data": [{"smiles": "CC[C@]1(O)C[C@H]2CN(CCc3c([nH]c4ccccc34)[C@@](C(=O)OC)(c3cc4c(cc3OC)N(C=O)[C@H]3[C@@](O)(C(=O)OC)[C@H](OC(C)=O)[C@]5(CC)C=CCN6CC[C@]43[C@@H]65)C2)C1", "note": "[vincristine, reference compound]", "values": [{"measurement": "average tumor growth inhibition", "setting": "[1]", "result": 18, "unit": "%"}, {"measurement": "average tumor growth inhibition", "setting": "[2]", "result": 85, "unit": "%"}]}]}
